Results published in ChEMBL document CHEMBL3885881, “DrugMatrix”.

Species on record: Rattus norvegicus
Test: DrugMatrix - Regimen: Daily Repeat
Type: toxicity, organism-based, Sprague-Dawley
Set-up: regimen Daily Repeat, gender Male, age 6-8 weeks
Settings: in vivo, po, route oral GAVAGE, vehicle .5 % CMC; for BASOPHIL / EOSINOPHIL / ERYTHROCYTE COUNT / HEMATOCRIT / HEMOGLOBIN / LEUKOCYTE COUNT / LYMPHOCYTE / MEAN CORPUSCULAR HEMOGLOBIN / MEAN CORPUSCULAR HEMOGLOBIN CONCENTRATION / MEAN CORPUSCULAR VOLUME / MONOCYTE / NEUTROPHIL / PLATELET COUNT: tissue Blood; for ALANINE AMINOTRANSFERASE / ALBUMIN / ALKALINE PHOSPHATASE / ASPARTATE AMINOTRANSFERASE / BLOOD UREA NITROGEN / CHLORIDE / CHOLESTEROL / CREATINE PHOSPHOKINASE / CREATININE / GLUCOSE / PHOSPHORUS / POTASSIUM / SODIUM / TOTAL PROTEIN: tissue Plasma
[1] = 0 mg/kg, 72 h, dose level Control, time 3 day
[2] = 0 mg/kg, 120 h, dose level Control, time 5 day
[3] = 28 mg/kg, 72 h, dose level Low, time 3 day
[4] = 28 mg/kg, 120 h, dose level Low, time 5 day
[5] = 2000 mg/kg, 72 h, dose level High, time 3 day
[6] = 2000 mg/kg, 120 h, dose level High, time 5 day

For `CCN1CCN(c2cc3c(cc2F)c(=O)c(C(=O)O)cn3C2CC2)CC1` [ENROFLOXACIN], the BASOPHIL [1] was 0%, the EOSINOPHIL [1] was 0.4% and the “ERYTHROCYTE COUNT” value [1] was 6.43 x10E6/uL. The HEMATOCRIT [1] was 37.36%, the HEMOGLOBIN [1] was 13.98 G/DL and the “LEUKOCYTE COUNT” value [1] was 13 x10E3/uL. The LYMPHOCYTE [1] was 81.4%, the “MEAN CORPUSCULAR HEMOGLOBIN” value [1] was 21.9 pg and the “MEAN CORPUSCULAR HEMOGLOBIN CONCENTRATION” value [1] was 37.4 G/DL. For the same compound, the “MEAN CORPUSCULAR VOLUME” value [1] was 58.52 fL, the MONOCYTE [1] was 0.4% and the NEUTROPHIL [1] was 18%. The “PLATELET COUNT” value [1] was 1386 x10E3/uL, the “ALANINE AMINOTRANSFERASE” value [1] was 39.33 u/L and the ALBUMIN [1] was 3.57 G/DL. The “ALKALINE PHOSPHATASE” value [1] was 283.83 u/L, the “ASPARTATE AMINOTRANSFERASE” value [1] was 69.5 u/L and the “BLOOD UREA NITROGEN” value [1] was 14.83 mg/dL. The CHLORIDE [1] was 107.33 MEQ/L, the CHOLESTEROL [1] was 75.17 mg/dL and the “CREATINE PHOSPHOKINASE” value [1] was 107.67 u/L. It also gave a CREATININE [1] of 0.48 mg/dL, a GLUCOSE [1] of 172.5 mg/dL and a PHOSPHORUS [1] of 10.48 mg/dL. For the same compound, the POTASSIUM [1] was 6.9 MEQ/L, the SODIUM [1] was 152.33 MEQ/L and the “TOTAL PROTEIN” value [1] was 5.9 G/DL. The BASOPHIL [2] was 0%, the EOSINOPHIL [2] was 0.4% and the “ERYTHROCYTE COUNT” value [2] was 6.96 x10E6/uL. For the same compound, the HEMATOCRIT [2] was 41.12%, the HEMOGLOBIN [2] was 15.24 G/DL and the “LEUKOCYTE COUNT” value [2] was 11.06 x10E3/uL. For the same compound, the LYMPHOCYTE [2] was 88.6%, the “MEAN CORPUSCULAR HEMOGLOBIN” value [2] was 21.96 pg and the “MEAN CORPUSCULAR HEMOGLOBIN CONCENTRATION” value [2] was 37.1 G/DL. The “MEAN CORPUSCULAR VOLUME” value [2] was 59.12 fL, the MONOCYTE [2] was 0.2% and the NEUTROPHIL [2] was 10.8%. For the same compound, the “PLATELET COUNT” value [2] was 1155.8 x10E3/uL, the “ALANINE AMINOTRANSFERASE” value [2] was 36.33 u/L and the ALBUMIN [2] was 3.72 G/DL. For the same compound, the “ALKALINE PHOSPHATASE” value [2] was 340.33 u/L, the “ASPARTATE AMINOTRANSFERASE” value [2] was 68.33 u/L and the “BLOOD UREA NITROGEN” value [2] was 15 mg/dL. The CHLORIDE [2] was 108.17 MEQ/L, the CHOLESTEROL [2] was 74.67 mg/dL and the “CREATINE PHOSPHOKINASE” value [2] was 110.67 u/L. For the same compound, the CREATININE [2] was 0.47 mg/dL, the GLUCOSE [2] was 171.33 mg/dL and the PHOSPHORUS [2] was 10.05 mg/dL. For the same compound, the POTASSIUM [2] was 6.7 MEQ/L, the SODIUM [2] was 155.5 MEQ/L and the “TOTAL PROTEIN” value [2] was 6.33 G/DL. For the same compound, the BASOPHIL [3] was 0%, the EOSINOPHIL [3] was 0.33% and the “ERYTHROCYTE COUNT” value [3] was 6.63 x10E6/uL. For the same compound, the HEMATOCRIT [3] was 40.9%, the HEMOGLOBIN [3] was 15.27 G/DL and the “LEUKOCYTE COUNT” value [3] was 15.3 x10E3/uL. The LYMPHOCYTE [3] was 87.67%, the “MEAN CORPUSCULAR HEMOGLOBIN” value [3] was 23.03 pg and the “MEAN CORPUSCULAR HEMOGLOBIN CONCENTRATION” value [3] was 37.33 G/DL. The “MEAN CORPUSCULAR VOLUME” value [3] was 61.73 fL, the MONOCYTE [3] was 0.33% and the NEUTROPHIL [3] was 11.67%. The “PLATELET COUNT” value [3] was 1320.33 x10E3/uL, the “ALANINE AMINOTRANSFERASE” value [3] was 35.67 u/L and the ALBUMIN [3] was 3.53 G/DL. For the same compound, the “ALKALINE PHOSPHATASE” value [3] was 256 u/L, the “ASPARTATE AMINOTRANSFERASE” value [3] was 57 u/L and the “BLOOD UREA NITROGEN” value [3] was 14 mg/dL. For the same compound, the CHLORIDE [3] was 106.67 MEQ/L, the CHOLESTEROL [3] was 68.67 mg/dL and the “CREATINE PHOSPHOKINASE” value [3] was 123 u/L. It also gave a CREATININE [3] of 0.5 mg/dL, a GLUCOSE [3] of 170 mg/dL and a PHOSPHORUS [3] of 11.27 mg/dL. The POTASSIUM [3] was 6.83 MEQ/L, the SODIUM [3] was 151.67 MEQ/L and the “TOTAL PROTEIN” value [3] was 5.93 G/DL. The BASOPHIL [4] was 0%, the EOSINOPHIL [4] was 0.67% and the “ERYTHROCYTE COUNT” value [4] was 7.38 x10E6/uL. For the same compound, the HEMATOCRIT [4] was 43.67%, the HEMOGLOBIN [4] was 15.73 G/DL and the “LEUKOCYTE COUNT” value [4] was 15.77 x10E3/uL. For the same compound, the LYMPHOCYTE [4] was 91%, the “MEAN CORPUSCULAR HEMOGLOBIN” value [4] was 21.23 pg and the “MEAN CORPUSCULAR HEMOGLOBIN CONCENTRATION” value [4] was 35.97 G/DL. For the same compound, the “MEAN CORPUSCULAR VOLUME” value [4] was 58.97 fL, the MONOCYTE [4] was 0% and the NEUTROPHIL [4] was 8.33%. For the same compound, the “PLATELET COUNT” value [4] was 1186 x10E3/uL, the “ALANINE AMINOTRANSFERASE” value [4] was 39 u/L and the ALBUMIN [4] was 3.77 G/DL. For the same compound, the “ALKALINE PHOSPHATASE” value [4] was 351 u/L, the “ASPARTATE AMINOTRANSFERASE” value [4] was 67.67 u/L and the “BLOOD UREA NITROGEN” value [4] was 13.67 mg/dL. For the same compound, the CHLORIDE [4] was 115 MEQ/L, the CHOLESTEROL [4] was 67.33 mg/dL and the “CREATINE PHOSPHOKINASE” value [4] was 110 u/L. It also gave a CREATININE [4] of 0.6 mg/dL, a GLUCOSE [4] of 194.33 mg/dL and a PHOSPHORUS [4] of 10 mg/dL. The POTASSIUM [4] was 6.77 MEQ/L, the SODIUM [4] was 161.67 MEQ/L and the “TOTAL PROTEIN” value [4] was 6.37 G/DL. The BASOPHIL [5] was 0%, the EOSINOPHIL [5] was 0% and the “ERYTHROCYTE COUNT” value [5] was 6.71 x10E6/uL. The HEMATOCRIT [5] was 40.2%, the HEMOGLOBIN [5] was 15 G/DL and the “LEUKOCYTE COUNT” value [5] was 9.93 x10E3/uL. For the same compound, the LYMPHOCYTE [5] was 94%, the “MEAN CORPUSCULAR HEMOGLOBIN” value [5] was 22.37 pg and the “MEAN CORPUSCULAR HEMOGLOBIN CONCENTRATION” value [5] was 37.33 G/DL. For the same compound, the “MEAN CORPUSCULAR VOLUME” value [5] was 59.87 fL, the MONOCYTE [5] was 0.33% and the NEUTROPHIL [5] was 5.67%. The “PLATELET COUNT” value [5] was 1314.33 x10E3/uL, the “ALANINE AMINOTRANSFERASE” value [5] was 34 u/L and the ALBUMIN [5] was 3.4 G/DL. For the same compound, the “ALKALINE PHOSPHATASE” value [5] was 233.33 u/L, the “ASPARTATE AMINOTRANSFERASE” value [5] was 47.33 u/L and the “BLOOD UREA NITROGEN” value [5] was 13.33 mg/dL. For the same compound, the CHLORIDE [5] was 107.67 MEQ/L, the CHOLESTEROL [5] was 72.67 mg/dL and the “CREATINE PHOSPHOKINASE” value [5] was 92.33 u/L. The CREATININE [5] was 0.67 mg/dL, the GLUCOSE [5] was 183.33 mg/dL and the PHOSPHORUS [5] was 11.5 mg/dL. For the same compound, the POTASSIUM [5] was 7.2 MEQ/L, the SODIUM [5] was 152.67 MEQ/L and the “TOTAL PROTEIN” value [5] was 5.53 G/DL. The BASOPHIL [6] was 0%, the EOSINOPHIL [6] was 0% and the “ERYTHROCYTE COUNT” value [6] was 7.19 x10E6/uL. For the same compound, the HEMATOCRIT [6] was 42.1%, the HEMOGLOBIN [6] was 14.8 G/DL and the “LEUKOCYTE COUNT” value [6] was 14.2 x10E3/uL. For the same compound, the LYMPHOCYTE [6] was 97.67%, the “MEAN CORPUSCULAR HEMOGLOBIN” value [6] was 20.57 pg and the “MEAN CORPUSCULAR HEMOGLOBIN CONCENTRATION” value [6] was 35.17 G/DL. For the same compound, the “MEAN CORPUSCULAR VOLUME” value [6] was 58.63 fL, the MONOCYTE [6] was 0% and the NEUTROPHIL [6] was 2.33%. The “PLATELET COUNT” value [6] was 1312.33 x10E3/uL, the “ALANINE AMINOTRANSFERASE” value [6] was 39 u/L and the ALBUMIN [6] was 3.43 G/DL. For the same compound, the “ALKALINE PHOSPHATASE” value [6] was 266 u/L, the “ASPARTATE AMINOTRANSFERASE” value [6] was 50 u/L and the “BLOOD UREA NITROGEN” value [6] was 11.67 mg/dL. For the same compound, the CHLORIDE [6] was 104 MEQ/L, the CHOLESTEROL [6] was 56 mg/dL and the “CREATINE PHOSPHOKINASE” value [6] was 95.33 u/L. It also gave a CREATININE [6] of 0.6 mg/dL, a GLUCOSE [6] of 152.67 mg/dL and a PHOSPHORUS [6] of 11.4 mg/dL. The POTASSIUM [6] was 6.03 MEQ/L, the SODIUM [6] was 150.67 MEQ/L and the “TOTAL PROTEIN” value [6] was 5.53 G/DL.
